Source: ChEMBL document CHEMBL5723584 (2023)
Activity calls are given as the source filed them. No cut-off for these calls is given here.

Key:
[1] = molecular target: MAP/microtubule affinity-regulating kinase 4 (Homo sapiens) (UniProt Q96L34); experiment: activity of MARK4(h) at 1.0 µM in the Eurofins Kinase panel; conditions: Compound concentration 1.0 uM
[2] = molecular target: Bone morphogenetic protein receptor type-2 (Homo sapiens) (UniProt Q13873); experiment: activity of BMPR2(h) at 1.0 µM in the Eurofins Kinase panel; conditions: Compound concentration 1.0 uM
[3] = molecular target: Insulin receptor (Homo sapiens) (UniProt P06213); experiment: activity of IR(h) at 1.0 µM in the Eurofins Kinase panel; conditions: Compound concentration 1.0 uM
[4] = molecular target: Phosphatidylinositol 3-kinase C2 domain-containing subunit gamma (Homo sapiens) (UniProt O75747); experiment: activity of PI3KC2gamma(h) at 1.0 µM in the Eurofins Kinase panel; conditions: Compound concentration 1.0 uM
[5] = molecular target: PI3-kinase p110-delta/p85-alpha (Homo sapiens) (UniProt P27986+O00329); experiment: activity of PI3 Kinase (p110delta/p85alpha)(h) at 1.0 µM in the Eurofins Kinase panel; type: protein-complex assay; conditions: Compound concentration 1.0 uM
[6] = molecular target: MAP kinase-activated protein kinase 5 (Homo sapiens) (UniProt Q8IW41); experiment: activity of PRAK(h) at 1.0 µM in the Eurofins Kinase panel; conditions: Compound concentration 1.0 uM
[7] = molecular target: Serine/threonine-protein kinase 26 (Homo sapiens) (UniProt Q9P289); experiment: activity of MST4(h) at 1.0 µM in the Eurofins Kinase panel; conditions: Compound concentration 1.0 uM
[8] = molecular target: Tyrosine-protein kinase Blk (Homo sapiens) (UniProt P51451); experiment: activity of Blk(h) at 1.0 µM in the Eurofins Kinase panel; conditions: Compound concentration 1.0 uM
[9] = molecular target: Casein kinase II subunit alpha (Homo sapiens) (UniProt P68400); experiment: activity of CK2alpha1(h) at 1.0 µM in the Eurofins Kinase panel; conditions: Compound concentration 1.0 uM
[10] = molecular target: Citron Rho-interacting kinase (Homo sapiens, UniProt O14578); experiment: Promega NanoBRET (CIT)
[11] = molecular target: Serine/threonine-protein kinase MRCK alpha (Homo sapiens) (UniProt Q5VT25); experiment: activity of MRCKalpha(h) at 1.0 µM in the Eurofins Kinase panel; conditions: Compound concentration 1.0 uM
[12] = molecular target: Serine/threonine-protein kinase LATS1 (Homo sapiens) (UniProt O95835); experiment: activity of LATS1(h) at 1.0 µM in the Eurofins Kinase panel; conditions: Compound concentration 1.0 uM
[13] = molecular target: Serine/threonine-protein kinase MRCK beta (Homo sapiens) (UniProt Q9Y5S2); experiment: activity of MRCKbeta(h) at 1.0 µM in the Eurofins Kinase panel; conditions: Compound concentration 1.0 uM
[14] = molecular target: PAS domain-containing serine/threonine-protein kinase (Homo sapiens) (UniProt Q96RG2); experiment: activity of PASK(h) at 1.0 µM in the Eurofins Kinase panel; conditions: Compound concentration 1.0 uM
[15] = molecular target: Protein kinase C beta type (Homo sapiens) (UniProt P05771); experiment: activity of PKCbetaII(h) at 1.0 µM in the Eurofins Kinase panel; conditions: Compound concentration 1.0 uM
[16] = molecular target: TRAF2 and NCK-interacting protein kinase (Homo sapiens) (UniProt Q9UKE5); experiment: activity of TNIK(h) at 1.0 µM in the Eurofins Kinase panel; conditions: Compound concentration 1.0 uM
[17] = molecular target: Death-associated protein kinase 3 (Homo sapiens) (UniProt O43293); experiment: activity of ZIPK(h) at 1.0 µM in the Eurofins Kinase panel; conditions: Compound concentration 1.0 uM
[18] = molecular target: cAMP-dependent protein kinase catalytic subunit PRKX (Homo sapiens) (UniProt P51817); experiment: activity of PrKX(h) at 1.0 µM in the Eurofins Kinase panel; conditions: Compound concentration 1.0 uM
[19] = molecular target: Homeodomain-interacting protein kinase 1 (Homo sapiens) (UniProt Q86Z02); experiment: activity of HIPK1(h) at 1.0 µM in the Eurofins Kinase panel; conditions: Compound concentration 1.0 uM
[20] = molecular target: Fibroblast growth factor receptor 2 (Homo sapiens) (UniProt P21802); experiment: activity of FGFR2(h) at 1.0 µM in the Eurofins Kinase panel; conditions: Compound concentration 1.0 uM
[21] = molecular target: Tyrosine-protein kinase receptor TYRO3 (Homo sapiens) (UniProt Q06418); experiment: activity of Rse(h) at 1.0 µM in the Eurofins Kinase panel; conditions: Compound concentration 1.0 uM
[22] = molecular target: Phosphatidylinositol 5-phosphate 4-kinase type-2 alpha (Homo sapiens) (UniProt P48426); experiment: activity of PIP4K2alpha(h) at 1.0 µM in the Eurofins Kinase panel; conditions: Compound concentration 1.0 uM
[23] = molecular target: cAMP-dependent protein kinase catalytic subunit beta (Homo sapiens) (UniProt P22694); experiment: activity of PKACbeta(h) at 1.0 µM in the Eurofins Kinase panel; conditions: Compound concentration 1.0 uM
[24] = molecular target: Serine/threonine-protein kinase MRCK gamma (Homo sapiens) (UniProt Q6DT37); experiment: activity of MRCKgamma(h) at 1.0 µM in the Eurofins Kinase panel; conditions: Compound concentration 1.0 uM
[25] = molecular target: Platelet-derived growth factor receptor beta (Homo sapiens) (UniProt P09619); experiment: activity of PDGFRbeta(h) at 1.0 µM in the Eurofins Kinase panel; conditions: Compound concentration 1.0 uM
[26] = molecular target: Serine/threonine-protein kinase pim-1 (Homo sapiens) (UniProt P11309); experiment: activity of Pim-1(h) at 1.0 µM in the Eurofins Kinase panel; conditions: Compound concentration 1.0 uM

Chain of Insulin receptor (Homo sapiens) (P06213 28-758 limits assumed): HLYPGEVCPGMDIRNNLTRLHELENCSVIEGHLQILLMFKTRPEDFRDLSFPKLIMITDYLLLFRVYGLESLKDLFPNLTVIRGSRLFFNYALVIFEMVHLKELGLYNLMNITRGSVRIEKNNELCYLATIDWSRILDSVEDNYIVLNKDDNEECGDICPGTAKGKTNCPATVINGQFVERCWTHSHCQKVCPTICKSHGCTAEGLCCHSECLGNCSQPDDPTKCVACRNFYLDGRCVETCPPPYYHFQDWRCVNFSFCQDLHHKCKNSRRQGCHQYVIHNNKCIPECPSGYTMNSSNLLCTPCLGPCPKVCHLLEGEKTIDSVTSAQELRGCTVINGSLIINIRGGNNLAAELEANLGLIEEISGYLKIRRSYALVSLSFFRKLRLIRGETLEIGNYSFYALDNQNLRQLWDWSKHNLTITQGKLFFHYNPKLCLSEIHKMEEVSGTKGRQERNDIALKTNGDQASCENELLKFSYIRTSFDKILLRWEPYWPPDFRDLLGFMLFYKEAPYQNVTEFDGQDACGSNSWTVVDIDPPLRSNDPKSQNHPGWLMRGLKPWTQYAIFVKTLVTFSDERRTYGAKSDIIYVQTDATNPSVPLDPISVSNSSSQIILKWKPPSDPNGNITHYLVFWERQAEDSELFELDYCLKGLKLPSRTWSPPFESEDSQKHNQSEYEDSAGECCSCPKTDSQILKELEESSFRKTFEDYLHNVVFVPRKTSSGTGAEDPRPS
Chain of Insulin receptor (Homo sapiens) (P06213 763-1382 limits assumed): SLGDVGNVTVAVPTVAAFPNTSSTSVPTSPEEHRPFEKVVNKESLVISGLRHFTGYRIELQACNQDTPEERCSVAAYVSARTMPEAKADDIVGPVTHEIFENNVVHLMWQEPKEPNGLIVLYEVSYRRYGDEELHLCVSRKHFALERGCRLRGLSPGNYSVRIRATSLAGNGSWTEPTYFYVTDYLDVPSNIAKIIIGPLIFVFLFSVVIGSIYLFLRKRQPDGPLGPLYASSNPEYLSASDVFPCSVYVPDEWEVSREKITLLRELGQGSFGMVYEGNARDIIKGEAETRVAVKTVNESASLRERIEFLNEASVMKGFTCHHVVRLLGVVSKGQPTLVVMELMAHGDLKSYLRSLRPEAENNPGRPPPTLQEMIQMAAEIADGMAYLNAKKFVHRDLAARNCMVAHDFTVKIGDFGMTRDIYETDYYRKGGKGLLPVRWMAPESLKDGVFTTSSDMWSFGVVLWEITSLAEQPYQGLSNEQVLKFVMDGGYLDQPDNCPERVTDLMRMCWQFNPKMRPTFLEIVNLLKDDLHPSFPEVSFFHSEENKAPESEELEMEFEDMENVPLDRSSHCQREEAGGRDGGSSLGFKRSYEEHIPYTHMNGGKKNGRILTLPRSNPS
Chain of Homeodomain-interacting protein kinase 1 (Homo sapiens) (Q86Z02 whole entry, looked up): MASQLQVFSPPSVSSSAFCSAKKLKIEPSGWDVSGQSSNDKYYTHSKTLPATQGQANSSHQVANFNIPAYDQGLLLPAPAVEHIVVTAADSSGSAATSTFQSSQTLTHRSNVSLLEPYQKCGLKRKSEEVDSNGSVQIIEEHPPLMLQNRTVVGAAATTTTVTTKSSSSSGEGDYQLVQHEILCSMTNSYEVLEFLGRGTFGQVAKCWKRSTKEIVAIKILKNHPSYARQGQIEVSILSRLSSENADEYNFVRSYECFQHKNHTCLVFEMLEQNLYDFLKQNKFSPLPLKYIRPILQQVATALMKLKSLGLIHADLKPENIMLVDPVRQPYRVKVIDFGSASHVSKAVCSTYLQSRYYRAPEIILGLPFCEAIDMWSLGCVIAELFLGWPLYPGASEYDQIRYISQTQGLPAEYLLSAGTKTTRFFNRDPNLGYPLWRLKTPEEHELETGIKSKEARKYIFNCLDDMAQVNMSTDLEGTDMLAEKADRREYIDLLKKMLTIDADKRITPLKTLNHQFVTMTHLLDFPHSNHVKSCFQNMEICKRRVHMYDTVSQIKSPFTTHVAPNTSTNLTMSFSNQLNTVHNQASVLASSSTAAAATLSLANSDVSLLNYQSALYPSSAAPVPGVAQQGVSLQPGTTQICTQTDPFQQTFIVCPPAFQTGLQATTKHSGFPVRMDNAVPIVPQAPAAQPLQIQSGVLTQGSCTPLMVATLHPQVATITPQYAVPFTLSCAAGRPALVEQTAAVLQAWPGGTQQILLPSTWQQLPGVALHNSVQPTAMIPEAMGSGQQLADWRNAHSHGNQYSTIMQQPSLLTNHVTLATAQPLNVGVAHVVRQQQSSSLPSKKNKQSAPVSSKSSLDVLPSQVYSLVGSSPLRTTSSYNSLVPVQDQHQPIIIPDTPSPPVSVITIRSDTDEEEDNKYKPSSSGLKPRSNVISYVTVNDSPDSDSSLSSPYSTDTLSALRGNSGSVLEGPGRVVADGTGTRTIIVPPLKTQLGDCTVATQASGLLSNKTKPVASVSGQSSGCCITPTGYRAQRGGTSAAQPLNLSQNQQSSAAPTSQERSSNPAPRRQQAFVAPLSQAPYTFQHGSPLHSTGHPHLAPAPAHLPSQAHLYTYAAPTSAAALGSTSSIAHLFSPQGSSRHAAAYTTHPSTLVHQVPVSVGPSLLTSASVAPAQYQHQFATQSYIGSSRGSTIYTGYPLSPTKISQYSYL
Chain of Fibroblast growth factor receptor 2 (Homo sapiens) (P21802 22-821 limits assumed): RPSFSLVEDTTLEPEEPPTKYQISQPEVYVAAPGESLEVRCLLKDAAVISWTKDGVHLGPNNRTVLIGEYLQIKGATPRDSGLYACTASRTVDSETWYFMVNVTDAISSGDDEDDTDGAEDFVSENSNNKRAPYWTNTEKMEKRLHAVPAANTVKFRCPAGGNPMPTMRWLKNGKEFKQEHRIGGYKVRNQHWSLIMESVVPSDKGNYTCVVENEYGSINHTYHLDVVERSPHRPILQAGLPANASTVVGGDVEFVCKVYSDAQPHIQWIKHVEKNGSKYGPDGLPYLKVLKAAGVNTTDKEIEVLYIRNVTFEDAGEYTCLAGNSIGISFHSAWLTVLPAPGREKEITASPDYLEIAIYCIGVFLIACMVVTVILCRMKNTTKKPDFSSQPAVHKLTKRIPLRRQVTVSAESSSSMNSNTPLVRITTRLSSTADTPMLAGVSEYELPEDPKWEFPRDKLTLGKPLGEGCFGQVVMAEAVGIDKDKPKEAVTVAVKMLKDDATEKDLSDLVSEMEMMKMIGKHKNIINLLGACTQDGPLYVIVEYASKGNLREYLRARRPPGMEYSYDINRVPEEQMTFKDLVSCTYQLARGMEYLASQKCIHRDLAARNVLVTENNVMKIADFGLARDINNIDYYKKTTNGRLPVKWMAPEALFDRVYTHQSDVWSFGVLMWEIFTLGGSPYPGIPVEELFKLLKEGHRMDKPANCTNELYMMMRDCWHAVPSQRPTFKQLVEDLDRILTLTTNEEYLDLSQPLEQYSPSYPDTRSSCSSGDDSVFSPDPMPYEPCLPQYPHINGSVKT
Chain of PAS domain-containing serine/threonine-protein kinase (Homo sapiens) (Q96RG2 whole entry, the tested form may be a part): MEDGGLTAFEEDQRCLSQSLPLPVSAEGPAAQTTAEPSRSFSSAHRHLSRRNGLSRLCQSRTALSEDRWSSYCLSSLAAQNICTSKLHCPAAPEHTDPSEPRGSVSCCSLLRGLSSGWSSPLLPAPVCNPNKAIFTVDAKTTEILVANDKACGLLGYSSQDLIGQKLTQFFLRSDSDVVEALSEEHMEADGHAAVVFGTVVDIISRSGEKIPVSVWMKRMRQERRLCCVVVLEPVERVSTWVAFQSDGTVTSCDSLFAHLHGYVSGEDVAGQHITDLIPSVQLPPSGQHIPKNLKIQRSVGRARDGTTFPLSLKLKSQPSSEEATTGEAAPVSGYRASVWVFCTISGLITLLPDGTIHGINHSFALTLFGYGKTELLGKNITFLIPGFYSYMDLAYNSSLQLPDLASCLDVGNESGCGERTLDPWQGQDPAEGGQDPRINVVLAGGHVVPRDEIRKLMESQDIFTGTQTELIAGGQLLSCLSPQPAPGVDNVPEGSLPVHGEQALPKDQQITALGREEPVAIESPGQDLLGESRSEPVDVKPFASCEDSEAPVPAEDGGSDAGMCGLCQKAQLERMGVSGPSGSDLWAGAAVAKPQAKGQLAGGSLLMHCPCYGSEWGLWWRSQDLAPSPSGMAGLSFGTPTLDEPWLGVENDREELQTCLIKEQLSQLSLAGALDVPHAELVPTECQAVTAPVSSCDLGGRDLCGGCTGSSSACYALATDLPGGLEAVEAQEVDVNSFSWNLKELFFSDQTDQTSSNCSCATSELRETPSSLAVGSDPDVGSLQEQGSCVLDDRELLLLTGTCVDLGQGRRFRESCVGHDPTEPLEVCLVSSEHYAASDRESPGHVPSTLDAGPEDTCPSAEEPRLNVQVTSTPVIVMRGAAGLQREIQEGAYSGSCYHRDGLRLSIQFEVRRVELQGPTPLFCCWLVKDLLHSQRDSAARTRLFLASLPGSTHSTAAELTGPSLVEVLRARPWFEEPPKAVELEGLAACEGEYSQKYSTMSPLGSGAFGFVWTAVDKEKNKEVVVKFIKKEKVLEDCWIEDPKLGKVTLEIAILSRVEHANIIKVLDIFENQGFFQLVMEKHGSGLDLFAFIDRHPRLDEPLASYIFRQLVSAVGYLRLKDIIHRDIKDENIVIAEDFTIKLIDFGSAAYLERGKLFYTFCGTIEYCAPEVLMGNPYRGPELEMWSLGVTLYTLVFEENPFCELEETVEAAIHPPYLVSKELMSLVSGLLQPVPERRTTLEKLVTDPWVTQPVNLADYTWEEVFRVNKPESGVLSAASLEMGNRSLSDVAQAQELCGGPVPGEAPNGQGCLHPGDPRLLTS
Chain of Phosphatidylinositol 5-phosphate 4-kinase type-2 alpha (Homo sapiens) (P48426 whole entry): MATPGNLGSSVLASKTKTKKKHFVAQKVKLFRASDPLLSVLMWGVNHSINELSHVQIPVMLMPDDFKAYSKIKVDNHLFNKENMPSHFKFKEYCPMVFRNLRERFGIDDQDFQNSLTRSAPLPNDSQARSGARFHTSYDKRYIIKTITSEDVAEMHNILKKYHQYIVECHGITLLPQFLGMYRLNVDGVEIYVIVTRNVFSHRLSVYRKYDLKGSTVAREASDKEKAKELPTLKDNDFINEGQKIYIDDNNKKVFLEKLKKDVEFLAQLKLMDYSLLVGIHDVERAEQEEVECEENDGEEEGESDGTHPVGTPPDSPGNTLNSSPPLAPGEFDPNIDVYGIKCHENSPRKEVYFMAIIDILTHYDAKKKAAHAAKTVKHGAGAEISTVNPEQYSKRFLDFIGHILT

Cc1cc2c(-c3ccc(NC(=O)[C@H](N)CC(C)(C)C)cc3C)ccnc2[nH]1
activity [1]: 92% | activity [2]: 85% | activity [3]: 94% | activity [4]: 103% | activity [5]: 110% | activity [6]: 107% | activity [7]: 106% | activity [8]: 88% | activity [9]: 112% | IC50 [10]: 51 nM (active) | activity [11]: 94% | activity [12]: 90% | activity [13]: 100% | activity [14]: 72% | activity [15]: 87% | activity [16]: 93% | activity [17]: 94% | activity [18]: 101% | activity [19]: 100% | activity [20]: 89% | activity [21]: 129% | activity [22]: 100% | activity [23]: 121% | activity [24]: 98% | activity [25]: 105% | activity [26]: 95%
